In patent US20250257034A1, “INDOLE DERIVATIVES AS SEROTONERGIC AGENTS USEFUL FOR THE TREATMENT OF DISORDERS RELATED THERETO” (priority 2023, published 2025):
Read-outs that look alike come from different tables or passages of the source.

What was measured:
[1] = Pharmacokinetic studies in rat (i.v.); assay type: in vivo; settings: male, Sprague-Dawley, rat, plasma, dose 1.37 mg/kg (I-71, I-128), 1.33 mg/kg ((S) I-67); for concentration at 0.25 h / concentration at 1 h / concentration at 4 h: intravenous, rat i.v.; for AUC(0-t) / half-life: iv, rat plasma, i.v.; for half-life: estimated from 2 points only
How it was run: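 Male Sprague-Dawley rats (~225-350 g) received compounds intravenously via tail vein in 5% Tween-80 in saline. Saphenous blood was sampled at 0.25, 1 and 4 h and analysed by LC-MS/MS. t1/2 and AUC0-tlast came from non-compartmental analysis using the linear up/log down trapezoidal rule.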

[2] = Human liver microsomes stability; assay type: in vitro ADME; settings: human liver microsomes
How it was run: (§1)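 Test compound at 2 μM final was incubated at 37° C with pooled human, male rat or male mouse liver microsomes in phosphate buffer with MgCl2 and 1 mM NADPH.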

[3] = Rat liver microsomes stability; assay type: in vitro ADME; settings: rat liver microsomes
How it was run: as §1

[4] = Mouse liver microsomes stability; assay type: in vitro ADME; settings: mouse liver microsomes
[5] = first individual rat (R01/R04), read-out: Plasma concentration
[6] = mean of 3 rats, read-out: Plasma concentration, Mean ± SD
[7] = second individual rat (R02/R05), read-out: Plasma concentration
[8] = third individual rat (R03/R06), read-out: Plasma concentration
[9] = male, pooled liver microsomes, 2 μM compound, 0.5 mg/mL
[10] = male, pooled liver microsomes, read-out: Scaled-up CLint

Question: What does the source list for `COc1ccc2[nH]cc(CCN(C)CCOC(F)F)c2c1` [Compound I-71, 2-(Difluoromethoxy)-N-(2-(5-methoxy-1H-indol-3-yl)ethyl)-N-methylethan-1-amine]?
Answer: concentration at 0.25 h [1, 5]: 292 ng/mL; concentration at 0.25 h [1, 6]: 286 ± 6.03 ng/mL; concentration at 0.25 h [1, 7]: 280 ng/mL; concentration at 0.25 h [1, 8]: 287 ng/mL; concentration at 1 h [1, 5]: 61.5 ng/mL; concentration at 1 h [1, 6]: 82.5 ± 19.1 ng/mL; concentration at 1 h [1, 7]: 87.2 ng/mL; concentration at 1 h [1, 8]: 98.9 ng/mL; concentration at 4 h [1, 5]: 1.27 ng/mL; concentration at 4 h [1, 6]: 1.82 ± 0.582 ng/mL; concentration at 4 h [1, 7]: 1.77 ng/mL; concentration at 4 h [1, 8]: 2.43 ng/mL; AUC(0-t) ([1]; first individual rat (R01/R04), read-out: AUC0-tlast): 253 ng·h/mL; half-life ([1]; first individual rat (R01/R04), read-out: Apparent t1/2 (converted)): 29.6 min; AUC(0-t) ([1]; mean of 3 rats, read-out: AUC0-tlast, Mean ± SD): 275 ± 21.7 ng·h/mL; half-life ([1]; mean of 3 rats, read-out: Apparent t1/2, Mean ± SD (converted)): 31.2 ± 1.69 min; AUC(0-t) ([1]; second individual rat (R02/R05), read-out: AUC0-tlast): 275 ng·h/mL; half-life ([1]; second individual rat (R02/R05), read-out: Apparent t1/2 (converted)): 31.1 min; AUC(0-t) ([1]; third individual rat (R03/R06), read-out: AUC0-tlast): 297 ng·h/mL; half-life ([1]; third individual rat (R03/R06), read-out: Apparent t1/2 (converted)): 32.9 min; Predicted hepatic CL [2]: 17.80 mL/min/kg; half-life at 2 μM ([2]; 2 μM compound, 0.5 mg/mL): 13.7 min; microsomal CLint at 2 μM ([2]; 2 μM compound, 0.5 mg/mL, read-out: CLint (μL/min/mg protein)): 101 µL/min/mg; Remaining Percentage (%) ([2]; With Cofactors, 0 min): 100.00%; Remaining Percentage (%) ([2]; With Cofactors, 30 min): 26.55%; Remaining Percentage (%) ([2]; With Cofactors, 60 min): 4.78%; Remaining Percentage (%) ([2]; Without Cofactors, 0 min): 100.00%; Remaining Percentage (%) ([2]; Without Cofactors, 30 min): 98.77%; Remaining Percentage (%) ([2]; Without Cofactors, 60 min): 104.91%; CLint scaled at 2 μM ([2]; read-out: Scaled-up CLint): 127 mL/min/kg; half-life at 2 μM [3, 9]: 9.7 min; CLint scaled at 2 μM [3, 10]: 256 mL/min/kg; microsomal CLint at 2 μM ([3]; male, rat, pooled liver microsomes, 2 μM compound, 0.5 mg/mL, read-out: CLint (μL/min/mg protein)): 143 µL/min/mg; Predicted hepatic CL [3]: 45.41 mL/min/kg; Remaining Percentage (%) ([3]; With Cofactors, 0 min): 100.00%; Remaining Percentage (%) ([3]; With Cofactors, 30 min): 10.63%; Remaining Percentage (%) ([3]; With Cofactors, 60 min): 1.37%; Remaining Percentage (%) ([3]; Without Cofactors, 0 min): 100.00%; Remaining Percentage (%) ([3]; Without Cofactors, 30 min): 96.79%; Remaining Percentage (%) ([3]; Without Cofactors, 60 min): 100.64%; microsomal CLint at 2 μM ([4]; male, mouse, pooled liver microsomes, 2 μM compound, 0.5 mg/mL, read-out: CLint (μL/min/mg protein)): 178 µL/min/mg; half-life at 2 μM [4, 9]: 7.8 min; CLint scaled at 2 μM [4, 10]: 777 mL/min/kg; Predicted hepatic CL [4]: 80.66 mL/min/kg; Remaining Percentage (%) ([4]; With Cofactors, 0 min): 100.00%; Remaining Percentage (%) ([4]; With Cofactors, 30 min): 6.96%; Remaining Percentage (%) ([4]; With Cofactors, 60 min): 0.66%; Remaining Percentage (%) ([4]; Without Cofactors, 0 min): 100.00%; Remaining Percentage (%) ([4]; Without Cofactors, 30 min): 105.81%; Remaining Percentage (%) ([4]; Without Cofactors, 60 min): 109.68%
